Reference: patent US20250025451A1, “TREATMENT OF CANCER WITH KDM4 INHIBITORS” (Celgene Corporation, priority 2021, published 2025)
pIC50: −log10 of the molar value. Like-named read-outs stand apart in the source and are kept apart here.

Assays:
MDA-MB-231 cells = experiment: cell cycle analysis in MDA-MB-231 cells; assay type: cell-based
Protocol: FIG. 3 illustrates that Compound 1 induces cell cycle arrest in S-phase. […] Cell cycle analysis was performed with MDA-MB-231 cells and using MultiCycle AV DNA analysis software.

[1] = system: FS53 patient-derived breast cancer organoid model; experiment: organoid colony formation assay, FS53; assay type: cell-based, human
Protocol: The IC50 values for Compound 1 inhibition of colony formation and viability were determined for the patient-derived colon cancer organoid models: SU60, T002C, SU62, SU34, SU103, T03SC, and SU106, patient-derived pancreatic cancer organoid models PA016SF, PA0143F, T016P, and T028P, and a patient-derived breast cancer organoid model FS5S3.
Colony formation and viability assays were performed in multiwell plates seeded with organoids using an in vitro culture system composed of a Matrigel layer, media containing a defined set of growth factors, and co-culture with Wnt3 A-secreting mouse embryonic fibroblasts. Assays were initiated by adding either DMSO as a negative control, or an inhibitor panobinostatat 100×IC50 concentration as a positive control, or serially diluted Compound 1. The cultures were incubated for 168 or 144 hours after which the number of viable organoids in each test well was assessed respectively using one of two detection methods: CTG or staining with calcein-AM followed by imaging and colony counting. Colony count or viability of cells treated with compound 1 was expressed as a percent of the negative control. Aggregated Percent of Control values were plotted against the corresponding Compound 1 concentration and the absolute IC50 value was determined from a non-linear regression curve as the concentration where inhibition was 50% of the control.

[2] = system: OCI-LY19 human diffuse large B-cell non-Hodgkin's lymphoma xenograft; assay type: in vivo; settings: for Median Tumor Volume Diff.: Day 21 minus Day 0
Protocol: The therapeutic in vivo efficacy of Compound 1 was evaluated in SU60 colorectal cancer, KYSE-150 esophageal cancer, COH70 triple-negative breast cancer, GXA-3036 gastric adenocarcinoma and OCI-LY19 Diffuse Large B-Cell Non-Hodgkin's Lymphoma xenograft models. In all studies, efficacy was determined based on percent tumor growth inhibition (TGI), differences in mean tumor growth, and statistical assessment of differences in net tumor volume distributions on the day of TGI analysis between control and treated animals. Tolerability was assessed based on differences in mean body weights between control and treated animals over the course of the study.
The in vivo efficacy and tolerability of Compound 1, administered orally as the lysine salt form suspended in a 0.5% MC vehicle, were evaluated in female C.B-17 severe combined immunodeficient (scid) mice inoculated subcutaneously with OCI-LY19 tumor cells established from the bone marrow of a patient with diffuse large B-cell non-Hodgkin's lymphoma (DLBCL), stage 4B, at relapse. Each mouse was inoculated subcutaneously in the right flank with 5×10^6 OCI-LY19 tumor cells (0.1 ml) suspended in 50% Matrigel. When the average tumor size reached ˜165 mm3, test animals were randomized into 6 groups consisting of 8 mice per group and treatments were initiated. […] Compound 1-treated mice received the Compound 1 lysine salt form suspended in vehicle at 5, 15, or 50 mg/kg QD or at 25 mg/kg BID on the 3 on/4 off schedule. TGI was determined on Day 21 as (1−Difftreated/Diffcontrol)×100. Individual tumors were measured on the days shown in two dimensions using a caliper, and the tumor volumes (TV) in mm3 were calculated using the formula: TV=0.5 a×b2, where a and b are the long and short tumor diameters in mm, respectively. Mean tumor volumes±SEM were calculated and plotted versus days of dosing (FIG. 15 left panel). Body weights were measured twice weekly. Body weights±SEM were calculated and plotted versus days of dosing (FIG. 15 right panel). The difference in mean net tumor volumes on the day of TGI analysis for treated versus control animals was evaluated statistically using one-way ANOVA followed by Dunnett's multiple comparisons test; Adjusted p-values are shown where a calculated probability (p)≤0.05 was considered statistically significant.

Structure (SMILES): CC(C)c1ccc(N(C)c2ccc3c(c2)OCC[C@H]3CNc2cnccc2C(=O)O)cc1 [Compound 1, 3-({[(4R)-7-{methyl[4-(propan-2-yl)phenyl]amino}-3,4-dihydro-2H-1-benzopyran-4-yl]methyl}amino)pyridine-4-carboxylic acid]
- effect on cell cycle (MDA-MB-231 cells): increased proportion of cells in S-phase in a dose-dependent manner
- pIC50 ([1]; FS53 human breast carcinoma model): 4.87
- pIC50 ([1]; FS53 human breast carcinoma organoid, 144 hrs, Colony Counts): 4.87
- % TGI ([2]; 5 mg/kg PO QD 3 on/4 off, Day 21, 5 mg/kg): 55%
- Median Tumor Volume Diff. ([2]; 5 mg/kg PO QD 3 on/4 off): 920 mm^3
- % TGI ([2]; 15 mg/kg PO QD 3 on/4 off, Day 21, 15 mg/kg): 83%
- Median Tumor Volume Diff. ([2]; 15 mg/kg PO QD 3 on/4 off): 345 mm^3
- % TGI ([2]; 25 mg/kg PO BID 3 on/4 off, Day 21, 25 mg/kg): 102%
- Median Tumor Volume Diff. ([2]; 25 mg/kg PO BID 3 on/4 off): −32 mm^3
- % TGI ([2]; 50 mg/kg PO QD 3 on/4 off, Day 21, 50 mg/kg): 90%
- Median Tumor Volume Diff. ([2]; 50 mg/kg PO QD 3 on/4 off): 196 mm^3
- tolerability (mean body weights) ([2]; female C.B-17 scid mice, all Compound 1 regimens): well-tolerated
- Median Tumor Volume Day 21 ([2]; female C.B-17 scid mice, lysine salt 5 mg/kg PO QD 3 on/4 off): 1088 mm^3
- Median Tumor Volume Day 21 ([2]; female C.B-17 scid mice, lysine salt 15 mg/kg PO QD 3 on/4 off): 512 mm^3
- Median Tumor Volume Day 21 ([2]; female C.B-17 scid mice, lysine salt 25 mg/kg (free acid equivalents) PO BID 3 on/4 off): 135 mm^3
- Median Tumor Volume Day 21 ([2]; female C.B-17 scid mice, lysine salt 50 mg/kg PO QD 3 on/4 off): 361 mm^3
